The species entered for this assay is Rattus norvegicus. The experiment in a line: Inhibition of deethylase activity upon incubation with liver microsomes from phenobarbital induced rats. It is filed as functional. Background: Microsomes from liver hold many membrane-bound enzymes, among them those of drug oxidation.

The values below come from ChEMBL document CHEMBL1126981, “Resistance of the 2,2,2-trifluoroethoxy aryl moiety to the cytochrome P-450 metabolism in rat liver microsomes” (Bioorg Med Chem Lett, 1993).

The term IC50 denotes the concentration needed to halve the response being measured. Higher therefore signals weaker potency in that assay. `CC(=O)Nc1ccc(OCC(F)(F)F)cc1`: it took 100 µM to reach half-maximal inhibition (IC50). In the case of `O=c1ccc2ccc(OCC(F)(F)F)cc2o1`, the IC50 turned out to be 230 µM.
